The target of experiment [1] is T1, system Xc^− (Homo sapiens, UniProt Q9UPY5).
T1 sequence (Q9UPY5 1-501): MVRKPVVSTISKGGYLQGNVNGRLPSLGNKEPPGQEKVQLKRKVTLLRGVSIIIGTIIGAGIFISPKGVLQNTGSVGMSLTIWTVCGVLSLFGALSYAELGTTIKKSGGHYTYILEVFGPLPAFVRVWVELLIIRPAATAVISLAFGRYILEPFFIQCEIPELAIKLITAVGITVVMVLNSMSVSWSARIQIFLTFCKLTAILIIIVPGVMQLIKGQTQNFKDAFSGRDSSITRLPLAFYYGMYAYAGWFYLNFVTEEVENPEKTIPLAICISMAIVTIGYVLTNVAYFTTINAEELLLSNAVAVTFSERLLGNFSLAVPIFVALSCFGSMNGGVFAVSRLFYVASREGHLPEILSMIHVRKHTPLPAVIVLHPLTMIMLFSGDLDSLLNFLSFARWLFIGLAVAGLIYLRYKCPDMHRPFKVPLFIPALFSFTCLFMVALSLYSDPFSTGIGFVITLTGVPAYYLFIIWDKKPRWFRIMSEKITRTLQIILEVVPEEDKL
T1 sequence (P08195 1-529 partner): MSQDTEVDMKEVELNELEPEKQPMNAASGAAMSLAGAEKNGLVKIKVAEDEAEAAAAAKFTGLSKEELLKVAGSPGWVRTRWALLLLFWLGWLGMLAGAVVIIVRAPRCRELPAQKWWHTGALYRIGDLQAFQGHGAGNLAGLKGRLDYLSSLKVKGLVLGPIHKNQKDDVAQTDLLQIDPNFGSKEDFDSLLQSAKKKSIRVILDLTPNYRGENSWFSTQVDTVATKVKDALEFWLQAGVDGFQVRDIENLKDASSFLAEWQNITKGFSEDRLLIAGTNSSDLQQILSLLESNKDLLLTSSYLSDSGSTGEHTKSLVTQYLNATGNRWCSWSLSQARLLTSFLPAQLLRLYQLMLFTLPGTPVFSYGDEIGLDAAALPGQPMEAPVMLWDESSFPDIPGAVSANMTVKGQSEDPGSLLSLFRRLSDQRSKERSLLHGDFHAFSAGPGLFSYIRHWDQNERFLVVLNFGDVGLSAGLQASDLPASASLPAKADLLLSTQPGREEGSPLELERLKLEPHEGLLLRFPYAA
Nature of the experiment: Cystine-induced glutamate release assay. Further details: endogenous in cells; host or cells: H4 cells. Particulars: H4 cells, sodium-free HEPES buffer, 50 μM L-Cystine, 2 hours, Amplex Red glutamate readout; read-out: pIC50 Cystine-induced glutamate release assay (converted). The experiment is classed as cell-based. In a few lines: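 IC50 (reported as pIC50) normalized to DMSO 1% and Erastin 50 μM controls, from Amplex Red fluorescence of glutamate exported into supernatant. H4 cells were washed into sodium-free buffer to exclude EAAT transport, then given compound with 50 μM L-cystine for 2 h in the incubator.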

Experiment [2] concerns the target T1, system Xc^−. Nature of the experiment: [^14C]L-Cystine uptake assay. The format is cell-based. The settings on record: H4 cells, sodium-free HEPES buffer, 0.5 μM L-[14C]Cystine and 4.5 μM L-Cystine, 1 hour at 37° C.; read-out: pIC50 [^14C] L-Cystine uptake assay (converted). The arrangement: endogenous in cells; host or cells: H4 cells. In a few lines: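 Compound effect is given as pIC50, taken between controls of 1% DMSO and 50 μM Erastin. Human H4 cells were pretreated 15 min with compound in sodium-free buffer, then took up 0.5 μM [14C]cystine with 4.5 μM cold cystine for 1 hour at 37° C, read by scintillation proximity counting.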

Consider 19 compounds from patent US20260217708A1, “FUSED BENZAZEPINE DERIVATIVES FOR USE IN THE TREATMENT OF CANCER AND EPILEPSY” (UCB BIOPHARMA SRL, priority 2023, published 2026).

Bounds are passed on as bounds.

For `CC1C(=O)N(CC(=O)Nc2ccc(C(F)F)cc2)c2cc(OC3CN(C)C3)nc(F)c2-c2cccnc21` (centres unmarked) [#378, N-[4-(difluoromethyl)phenyl]-2-[3-fluoro-10-methyl-5-(1-methylazetidin-3-yl)oxy-9-oxo-4,8,12-triazatricyclo[9.4.0.0^2,7]pentadeca-1(15),2,4,6,11,13-hexaen-8-yl]acetamide], the figures for the IC50 in experiment [1] and in experiment [2] were 15.8 to 39.8 nM and 39.8 to 100 nM, respectively.

On to `Cc1cc2c(c(F)n1)-c1cncnc1C(C)C(=O)N2CC(=O)Nc1ccc(C(F)(F)F)cc1` (centres unmarked) [#112, 2-(15-fluoro-8,13-dimethyl-9-oxo-4,6,10,14-tetrazatricyclo[9.4.0.0^2,7]pentadeca-1(15),2(7),3,5,11,13-hexaen-10-yl)-N-[4-(trifluoromethyl)phenyl]acetamide], for which the IC50 in experiment [1] is 39.8 to 100 nM; in experiment [2], less than 15.8 nM.

In the case of `CC1C(=O)N(CC(=O)Nc2ccc(Cl)c(F)c2)c2cc(C(F)(F)F)nc(O)c2-c2ccccc21` (single isomer, unassigned) [#397, N-(4-chloro-3-fluoro-phenyl)-2-[1-hydroxy-7-methyl-6-oxo-3-(trifluoromethyl)-7H-pyrido[3,4-a][3]benzazepin-5-yl]acetamide], the IC50 in experiment [1] and in experiment [2] was 39.8 to 100 nM in each case.

For the compound `COc1cc2c(c(Cl)n1)-c1cccnc1C(C)C(=O)N2CC(=O)Nc1ccc(C(F)F)cc1` (single isomer, unassigned) [#411, 2-(3-chloro-5-methoxy-10-methyl-9-oxo-4,8,12-triazatricyclo[9.4.0.0^2,7]pentadeca-1(11),2(7),3,5,12,14-hexaen-8-yl]-N-[4-(difluoromethyl)phenyl)acetamide], the IC50 in experiment [1] and in experiment [2] was less than 15.8 nM in each case.

For the compound `Cc1cc2c(c(F)n1)-c1cc(F)cnc1C(C)C(=O)N2CC(=O)Nc1ccc(C(F)F)cc1` (single isomer, unassigned) [#261, N-[4-(difluoromethyl)phenyl]-2-[3,14-difluoro-5,10-dimethyl-9-oxo-4,8,12-triazatricyclo[9.4.0.0^2,7]pentadeca-1(11),2(7),3,5,12,14-hexaen-8-yl]acetamide], the IC50 in experiment [1] and in experiment [2] was less than 15.8 nM throughout.

Regarding `CC(=O)OCc1cc2c(cn1)-c1ccccc1CC(=O)N2CC(=O)Nc1ccc(C(F)(F)F)cc1` [#59, [6-oxo-5-[2-oxo-2-[4-(trifluoromethyl)anilino]ethyl]-7H-pyrido[4,3-d][3]benzazepin-3-yl]methyl acetate], the IC50 in experiment [1] and in experiment [2] was 100 to 501 nM each time.

Consider `Cc1cc2c(c(Cl)n1)-c1cccnc1C(C)C(=O)N2CC(=O)Nc1ccc(C#N)cc1` (centres unmarked) [#115, 2-(3-chloro-5,10-dimethyl-9-oxo-4,8,12-triazatricyclo[9.4.0.0^2,7]pentadeca-1(11),2,4,6,12,14-hexaen-8-yl)-N-(4-cyanophenyl)acetamide], for which the IC50 was 100 to 501 nM in experiment [1] and 39.8 to 100 nM in experiment [2].

For the compound `Cc1nccc2c1-c1ccccc1CC(=O)N2CC(=O)Nc1ccc(C(F)(F)F)cc1` [#28, 2-(1-methyl-6-oxo-7H-pyrido[4,3-d] [3]benzazepin-5-yl)-N-[4-(trifluoro-methyl)phenyl] acetamide], the IC50 in experiment [1] and in experiment [2] was 39.8 to 100 nM in each case.

With `Cc1cc2c(c(F)n1)-c1cccnc1[C@@H](C)C(=O)N2CC(=O)Nc1ccc(C(F)(F)F)cc1F` [#247, 2-[(10R)-3-fluoro-5,10-dimethyl-9-oxo-4,8,12-triazatricyclo[9.4.0.0^2,7]pentadeca-1(11),2(7),3,5,12,14-hexaen-8-yl)-N-[2-fluoro-4-(trifluoromethyl)phenyl]acetamide], the IC50 in experiment [1] and in experiment [2] was 39.8 to 100 nM in each case.

`COc1cnc2c(c1)-c1cnc(C)cc1N(CC(=O)Nc1ccc(Cl)c(F)c1)C(=O)C2C` (single isomer, unassigned) [#415, N-(4-chloro-3-fluoro-phenyl)-2-[14-methoxy-5,10-dimethyl-9-oxo-4,8,12-triazatricyclo[9.4.0.0^2,7]pentadeca-1(15),2,4,6,11,13-hexaen-8-yl]acetamide]: the IC50 in experiment [1] and in experiment [2] was less than 15.8 nM each time.

As for `Cc1cc2c(c(Cl)n1)-c1cccnc1C(F)C(=O)N2CC(=O)Nc1ccc(C(F)F)cc1` (single isomer, unassigned) [#223, Enantiomer (10R) or (10S) of 2-[3-chloro-10-fluoro-5-methyl-9-oxo-4,8,12-triazatricyclo[9.4.0.0^2,7]pentadeca-1(11),2(7),3,5,12,14-hexaen-8-yl]-N-[4-(difluoromethyl)phenyl]acetamide], the IC50 is less than 15.8 nM in experiment [1] and 15.8 to 39.8 nM in experiment [2].

Regarding `Cc1cc2c(c(=O)n1C)-c1ccc(F)cc1C(C)C(=O)N2CC(=O)Nc1ccc(Cl)c(F)c1` (single isomer, unassigned) [#174, N-(4-chloro-3-fluoro-phenyl)-2-(9-fluoro-2,3,7-trimethyl-1,6-dioxo-7H-pyrido[4,3-d][3]benzazepin-5-yl)acetamide], the IC50 in experiment [1] and in experiment [2] was less than 15.8 nM throughout.

Take `Cc1cc2c(c(=O)[nH]1)-c1ccccc1[C@@H](C)C(=O)N2CC(=O)Nc1ccc(C(F)(F)F)cc1` (single isomer, unassigned) [#205, Entnaiomer (7R) or (7S) of 2-[3,7-dimethyl-1,6-dioxo-2,7-dihydropyrido[4,3-d][3]benzazepin-5-yl]-N-[4-(trifluoromethyl)phenyl]acetamide]: the figures for the IC50 in experiment [1] and in experiment [2] were 15.8 to 39.8 nM and less than 15.8 nM, respectively.

`Cc1cc2c(c(Cl)n1)-c1ccnnc1C(C)C(=O)N2CC(=O)Nc1ccc(Cl)c(F)c1` (single isomer, unassigned) [#258, 2-[3-chloro-5,10-dimethyl-9-oxo-4,8,12,13-tetrazatricyclo[9.4.0.0^2,7]pentadeca-1(15),2,4,6,11,13-hexaen-8-yl]-N-(4-chloro-3-fluoro-phenyl)acetamide]: the IC50 in experiment [1] and in experiment [2] was less than 15.8 nM throughout.

Take `Cc1cc2c(cn1)-c1cccnc1CC(=O)N2CC(=O)Nc1ccc(C(F)(F)F)cc1` [#36, 2-(5-methyl-9-oxo-4,8,12-triazatricyclo[9.4.0.0^2,7]pentadeca-1(11),2(7),3,5,12,14-hexaen-8-yl)-N-[4-(trifluoromethyl)phenyl]acetamide]: the IC50 in experiment [1] was 39.8 to 100 nM; in experiment [2], 100 to 501 nM.

Consider `Cc1cc2c(c(=O)n1C)-c1ccnn1C(C)C(=O)N2CC(=O)Nc1ccc(C(F)F)cc1` (single isomer, unassigned) [#358, N-[4-(difluoromethyl)phenyl]-2-[7,12,13-trimethyl-8,14-dioxo-5,6,9,13-tetrazatricyclo[8.4.0.0^2,6]tetradeca-1(10),2,4,11-tetraen-9-yl]acetamide], for which the IC50 is 15.8 to 39.8 nM in experiment [1] and 100 to 501 nM in experiment [2].

As for `O=C(CN1C(=O)Cc2ccccc2-c2cnc(CO)cc21)Nc1ccc(C(F)(F)F)cc1` [#60, 2-[3-(hydroxymethyl)-6-oxo-7H-pyrido[4,3-d][3]benzazepin-5-yl]-N-[4-(trifluoromethyl)phenyl]acetamide], the IC50 in experiment [1] and in experiment [2] was 100 to 501 nM in each case.

As for `Cc1cc2c(c(F)n1)-c1cccnc1[C@@H](C)C(=O)N2CC(=O)Nc1ccc2cnc(F)cc2c1` (single isomer, unassigned) [#239], the IC50 in experiment [1] and in experiment [2] was 15.8 to 39.8 nM in each case.

Regarding `Cc1cc2c(cn1)-c1ccc(Cl)cc1C(C)C(=O)N2CC(=O)Nc1ccc(C(F)F)cc1` (single isomer, unassigned) [#396, 2-[9-chloro-3,7-dimethyl-6-oxo-7H-pyrido[3,4-a][3]benzazenin-5-yl]-N-[4-(difluoromethyl)phenyl]acetamide], the IC50 in experiment [1] and in experiment [2] was 15.8 to 39.8 nM in each case.
